One assay concerns the target T1, DDR2 (Homo sapiens, UniProt Q16832).
T1 construct: purchased Life Technologies
T1 sequence (Q16832 22-855): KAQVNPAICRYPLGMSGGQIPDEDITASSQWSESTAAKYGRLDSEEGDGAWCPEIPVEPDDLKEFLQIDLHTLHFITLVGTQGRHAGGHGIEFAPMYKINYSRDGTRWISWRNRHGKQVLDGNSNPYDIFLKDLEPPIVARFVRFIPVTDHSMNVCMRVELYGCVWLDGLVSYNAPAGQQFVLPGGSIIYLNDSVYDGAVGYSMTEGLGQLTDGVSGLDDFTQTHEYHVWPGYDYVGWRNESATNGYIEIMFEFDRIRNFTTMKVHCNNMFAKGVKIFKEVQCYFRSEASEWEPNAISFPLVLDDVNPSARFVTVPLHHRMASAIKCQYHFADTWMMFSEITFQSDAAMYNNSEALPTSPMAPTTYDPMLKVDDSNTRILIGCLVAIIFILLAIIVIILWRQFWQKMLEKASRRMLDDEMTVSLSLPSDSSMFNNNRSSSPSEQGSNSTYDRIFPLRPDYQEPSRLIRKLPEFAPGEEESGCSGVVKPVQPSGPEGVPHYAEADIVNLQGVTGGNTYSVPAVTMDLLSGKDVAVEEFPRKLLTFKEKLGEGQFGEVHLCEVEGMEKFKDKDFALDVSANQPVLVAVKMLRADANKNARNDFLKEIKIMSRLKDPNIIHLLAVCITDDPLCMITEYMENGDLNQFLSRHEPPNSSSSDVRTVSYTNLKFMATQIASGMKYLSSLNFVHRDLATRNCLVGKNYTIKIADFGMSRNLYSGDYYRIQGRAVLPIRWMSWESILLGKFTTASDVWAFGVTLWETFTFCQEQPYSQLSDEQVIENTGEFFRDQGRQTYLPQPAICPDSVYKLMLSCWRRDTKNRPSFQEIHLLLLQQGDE
Put plainly: LanthaScreen Europium Kinase Binding assay, DDR2. The following applies: 5 nM DDR2, 10 nM Kinase Tracer 178, 1 h at rt; Ki from IC50 by Cheng-Prusoff; read-out: Ki DDR2. As to the method:
(§1) DDR1 and DDR2 binding assays were performed using Life Technologies LanthaScreen™ Europium Kinase Binding assay. […] IC50 values were determined in GraphPad Prism 7.0 software, using 4 parameter model: log (inhibitor) vs. response. IC50 values were converted in Ki using the Cheng-Prusoff equation (Ki-IC50/(1+ [Tracer]/Kd).

The target in another assay is T2, DDR1 (Homo sapiens, UniProt Q08345).
T2 construct: purchased Carna Biosciences
T2 sequence (Q08345 19-913): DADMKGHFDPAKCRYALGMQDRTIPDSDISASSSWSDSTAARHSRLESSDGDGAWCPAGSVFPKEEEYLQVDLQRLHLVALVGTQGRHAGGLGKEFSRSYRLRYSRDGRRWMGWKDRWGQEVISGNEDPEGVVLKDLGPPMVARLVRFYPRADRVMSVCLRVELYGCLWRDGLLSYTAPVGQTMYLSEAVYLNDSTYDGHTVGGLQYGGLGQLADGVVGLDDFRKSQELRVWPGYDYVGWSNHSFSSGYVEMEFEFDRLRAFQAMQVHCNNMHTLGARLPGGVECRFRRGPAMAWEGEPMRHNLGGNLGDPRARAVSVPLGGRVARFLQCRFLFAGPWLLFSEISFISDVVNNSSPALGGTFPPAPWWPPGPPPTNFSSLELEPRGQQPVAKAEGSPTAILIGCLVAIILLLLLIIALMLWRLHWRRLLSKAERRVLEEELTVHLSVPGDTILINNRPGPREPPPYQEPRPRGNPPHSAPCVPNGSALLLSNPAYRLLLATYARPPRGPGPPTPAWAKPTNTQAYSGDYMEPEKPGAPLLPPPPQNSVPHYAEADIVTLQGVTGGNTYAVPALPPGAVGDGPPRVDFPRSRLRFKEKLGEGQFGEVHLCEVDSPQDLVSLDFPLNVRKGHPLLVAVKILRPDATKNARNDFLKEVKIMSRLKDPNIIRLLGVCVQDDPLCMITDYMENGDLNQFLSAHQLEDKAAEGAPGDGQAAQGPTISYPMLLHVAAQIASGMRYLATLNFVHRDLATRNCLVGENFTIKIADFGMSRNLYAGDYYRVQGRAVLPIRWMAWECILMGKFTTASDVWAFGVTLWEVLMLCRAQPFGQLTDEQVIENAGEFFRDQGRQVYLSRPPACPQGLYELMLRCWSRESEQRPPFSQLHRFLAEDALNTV
Put plainly: LanthaScreen Europium Kinase Binding assay, DDR1. The following applies: 5 nM DDR1, 20 nM Kinase Tracer 178, 1 h at rt; Ki from IC50 by Cheng-Prusoff; read-out: Ki DDR1. On the procedure:
as §1
A general note: Time-resolved FRET reads energy transfer from a long-lived donor to a nearby acceptor.

For orientation: Ki means the dissociation constant of the complex between target and ligand, obtained from inhibition or displacement. Consider `CN(C(=O)Nc1cncc(C(F)(F)F)c1)C1CC2(C1)CN(C(=O)c1ncnc3[nH]ccc13)C2` [Example 206, 1-(2-(7H-pyrrolo[2,3-d]pyrimidine-4-carbonyl)-2-azaspiro[3.3]heptan-6-yl)-1-methyl-3-(5-(trifluoromethyl)pyridin-3-yl)urea], for which the Ki on DDR2 is 5 to 25 nM; on DDR1, less than 5 nM.
Taken in the same sequence, the figures for `CN(C(=O)Nc1cncc(SC(F)(F)F)c1)C1CC2(C1)CN(C(=O)c1cnn3ccn(C)c13)C2` [Example 207, 1-methyl-1-(2-(1-methyl-1H-imidazo[1,2-b]pyrazole-7-carbonyl)-2-azaspiro[3.3]heptan-6-yl)-3-(5-((trifluoromethyl)thio)pyridin-3-yl)urea] were 5 to 25 nM and less than 5 nM.
The matching figures for `CN(C(=O)Nc1cc(C(F)(F)F)cnn1)C1CC2(C1)CN(C(=O)c1cnn3ccn(C)c13)C2` [Example 208, 1-methyl-1-(2-(1-methyl-1H-imidazo[1,2-b]pyrazole-7-carbonyl)-2-azaspiro[3.3]heptan-6-yl)-3-(5-(trifluoromethyl)pyridazin-3-yl)urea]: 25 to 100 nM and 5 to 25 nM.
The matching figures for `CN(C(=O)Nc1cc(C(F)(F)F)ccn1)C1CC2(C1)CN(C(=O)c1cnn3ccn(CCO)c13)C2` [Example 209, 1-(2-(1-(2-hydroxyethyl)-1H-imidazo[1,2-b]pyrazole-7-carbonyl)-2-azaspiro[3.3]heptan-6-yl)-1-methyl-3-(4-(trifluoromethyl)pyridin-2-yl)urea]: 5 to 25 nM and less than 5 nM.
For `CN(C(=O)Nc1cccc(S(F)(F)(F)(F)F)c1)C1CC2(C1)CN(C(=O)c1cnn3ccn(CCO)c13)C2` [Example 210, 1-(2-(1-(2-hydroxyethyl)-1H-imidazo[1,2-b]pyrazole-7-carbonyl)-2-azaspiro[3.3]heptan-6-yl)-1-methyl-3-(3-(pentafluoro-16-sulfaneyl)phenyl)urea], the Ki at DDR2 and at DDR1 was less than 5 nM throughout.
With `COc1c(CO)cc(OC(F)(F)F)cc1NC(=O)NC1CC2(C1)CN(C(=O)c1cnn3ccncc13)C2` [Example 212, 1-(3-(hydroxymethyl)-2-methoxy-5-(trifluoromethoxy)phenyl)-3-(2-(pyrazolo[1,5-a]pyrazine-3-carbonyl)-2-azaspiro[3.3]heptan-6-yl)urea], the inhibitory constant (Ki) on DDR2 lay in the range of 25 to 100 nM; on DDR1, 5 to 25 nM.
Regarding `COCCn1ccn2ncc(C(=O)N3CC4(CC(N(C)C(=O)Nc5cncc(C(F)(F)F)c5)C4)C3)c12` [Example 213, 1-(2-(1-(2-methoxyethyl)-1H-imidazo[1,2-b]pyrazole-7-carbonyl)-2-azaspiro[3.3]heptan-6-yl)-1-methyl-3-(5-(trifluoromethyl)pyridin-3-yl)urea], the Ki at DDR2 was 25 to 100 nM; on DDR1, 5 to 25 nM.
With `CN(C(=O)Nc1cncc(C(F)(F)F)c1)C1CC2(C1)CN(C(=O)c1cnn3ccc(N4CCCC4)cc13)C2` [Example 214, 1-methyl-1-(2-(5-(pyrrolidin-1-yl)pyrazolo[1,5-a]pyridine-3-carbonyl)-2-azaspiro[3.3]heptan-6-yl)-3-(5-(trifluoromethyl)pyridin-3-yl)urea], the results for the inhibition constant Ki on DDR2 and at DDR1 were 5 to 25 nM and less than 5 nM, respectively.
Taken in the same sequence, the figures for `CN(C(=O)Nc1cc(C(C)(C)C)no1)C1CC2(C1)CN(C(=O)c1cnn3ccn(C)c13)C2` [Example 215, 3-(3-(tert-butyl)isoxazol-5-yl)-1-methyl-1-(2-(1-methyl-1H-imidazo[1,2-b]pyrazole-7-carbonyl)-2-azaspiro[3.3]heptan-6-yl)urea] were 25 to 100 nM and 5 to 25 nM.
As to `CN(C(=O)Nc1cncc(C(F)(F)F)c1)C1CC2(C1)CN(C(=O)c1cnn3ccccc13)C2` [Example 216, 1-methyl-1-(2-(pyrazolo[1,5-a]pyridine-3-carbonyl)-2-azaspiro[3.3]heptan-6-yl)-3-(5-(trifluoromethyl)pyridin-3-yl)urea], the Ki on DDR2 was 25 to 100 nM; at DDR1 it was less than 5 nM.
The matching figures for `CN(C(=O)Nc1cc(C(F)(F)F)ccn1)C1CC2(C1)CN(C(=O)c1cnn3ccsc13)C2` [Example 217, 1-methyl-1-(2-(pyrazolo[5,1-b]thiazole-7-carbonyl)-2-azaspiro[3.3]heptan-6-yl)-3-(4-(trifluoromethyl)pyridin-2-yl)urea]: 5 to 25 nM and less than 5 nM.
For the compound `COc1c(CO)cc(OC(F)(F)F)cc1NC(=O)N(C)C1CC2(C1)CN(c1cnc3[nH]ncc3c1)C2` [Example 218, 1-(2-(1H-pyrazolo[3,4-b]pyridin-5-yl)-2-azaspiro[3.3]heptan-6-yl)-3-(3-(hydroxymethyl)-2-methoxy-5-(trifluoromethoxy)phenyl)-1-methylurea], the Ki at DDR2 is 5 to 25 nM; at DDR1, less than 5 nM.
With `CN(C(=O)Nc1cc(OC(F)(F)F)ccn1)C1CC2(C1)CN(c1cnc3[nH]ncc3c1)C2` [Example 219, 1-(2-(1H-pyrazolo[3,4-b]pyridin-5-yl)-2-azaspiro[3.3]heptan-6-yl)-1-methyl-3-(4-(trifluoromethoxy)pyridin-2-yl)urea], the results for the inhibition constant (Ki) on DDR2 and on DDR1 were 5 to 25 nM and less than 5 nM, respectively.
Taken in the same sequence, the figures for `CN(C(=O)Nc1cncc(C(F)(F)F)c1)C1CC2(C1)CN(c1cnc3[nH]ccc3c1)C2` [Example 220, 1-(2-(1H-pyrrolo[2,3-b]pyridin-5-yl)-2-azaspiro[3.3]heptan-6-yl)-1-methyl-3-(5-(trifluoromethyl)pyridin-3-yl)urea] were 25 to 100 nM and 5 to 25 nM.
The matching figures for `CN(C(=O)Nc1cncc(OC(F)(F)F)c1)C1CC2(C1)CN(c1cnc3[nH]ncc3c1)C2` [Example 221, 1-(2-(1H-pyrazolo[3,4-b]pyridin-5-yl)-2-azaspiro[3.3]heptan-6-yl)-1-methyl-3-(5-(trifluoromethoxy)pyridin-3-yl)urea]: 5 to 25 nM and less than 5 nM.
Turning to `CN(C(=O)Nc1cc(C(C)(C)C)on1)C1CC2(C1)CN(C(=O)c1cnn3ccn(C)c13)C2` [Example 222, 3-(5-(tert-butyl)isoxazol-3-yl)-1-methyl-1-(2-(1-methyl-1H-imidazo[1,2-b]pyrazole-7-carbonyl)-2-azaspiro[3.3]heptan-6-yl)urea], the Ki at DDR2 was in the range of 25 to 100 nM; on DDR1, 5 to 25 nM.
The matching figures for `Cc1cc(NC(=O)N(C)C2CC3(C2)CN(C(=O)c2cnn4ccn(C)c24)C3)cc(C(F)(F)F)c1` [Example 223, 1-methyl-1-(2-(1-methyl-1H-imidazo[1,2-b]pyrazole-7-carbonyl)-2-azaspiro[3.3]heptan-6-yl)-3-(3-methyl-5-(trifluoromethyl)phenyl)urea]: 5 to 25 nM and less than 5 nM.
Taken in the same sequence, the figures for `CN(C(=O)Nc1cc(Cl)cc(C(F)(F)F)c1)C1CC2(C1)CN(C(=O)c1cnn3ccn(C)c13)C2` [Example 224, 3-(3-chloro-5-(trifluoromethyl)phenyl)-1-methyl-1-(2-(1-methyl-1H-imidazo[1,2-b]pyrazole-7-carbonyl)-2-azaspiro[3.3]heptan-6-yl)urea] were 5 to 25 nM and less than 5 nM.
The matching figures for `COCCc1cn2ncc(C(=O)N3CC4(CC(N(C)C(=O)Nc5cncc(C(F)(F)F)c5)C4)C3)c2n1C` [Example 225, 1-(2-(2-(2-methoxyethyl)-1-methyl-1H-imidazo[1,2-b]pyrazole-7-carbonyl)-2-azaspiro[3.3]heptan-6-yl)-1-methyl-3-(5-(trifluoromethyl)pyridin-3-yl)urea]: 25 to 100 nM and less than 5 nM.
For the compound `CN(C(=O)Nc1cc(Br)ccn1)C1CC2(C1)CN(C(=O)c1cnn3ccsc13)C2` [Example 226, 3-(4-bromopyridin-2-yl)-1-methyl-1-(2-(pyrazolo[5,1-b]thiazole-7-carbonyl)-2-azaspiro[3.3]heptan-6-yl)urea], the results for the Ki on DDR2 and at DDR1 were 5 to 25 nM and less than 5 nM, respectively.
Taken in the same sequence, the figures for `COCCn1cc(-c2ccc3c(C(=O)N4CC5(CC(N(C)C(=O)Nc6cncc(C(F)(F)F)c6)C5)C4)cnn3c2)cn1` [Example 227, 1-(2-(6-(1-(2-methoxyethyl)-1H-pyrazol-4-yl)pyrazolo[1,5-a]pyridine-3-carbonyl)-2-azaspiro[3.3]heptan-6-yl)-1-methyl-3-(5-(trifluoromethyl)pyridin-3-yl)urea] were 5 to 25 nM and less than 5 nM.

These data come from patent US20260285855A1, “HETEROARYL DERIVATIVES AS DDRS INHIBITORS” (CHIESI FARMACEUTICI S.P.A., priority 2023, published 2026).
